This note sets out measurements from US10874103B2, “Antibacterial composition comprising an acetal or a long-chain alkyl hexitane ether” (TEREOS STARCH & SWEETENERS BELGIUM, priority 2014, dated 2020).

In data set [1] the test system is Enterococci: E. faecalis strains. Kind of data set: MIC microdilution on wider panel (Example 8), E. faecalis strains. In kind it is cell-based. The protocol: The cultures studied, freshly isolated (after incubation on a blood agar at 37° C. for 18 h), are taken up in sterile water (10 mL) until a 0.5 McFarland (Mc) suspension i.e. at 1 to 2×10^8 CFU (bacteria)/cm^3 is obtained. The bacterial suspension was then diluted to obtain a final concentration of 1×10^6 CFU/cm^3. Each well contains an identical quantity of Mueller-Hinton medium (a rich medium for bacterial culture) and bacteria with final 0.5×10^6 CFU/cm^3. The test compounds of interest are solubilized in ethanol or DMSO at 25 mg/mL before being diluted to different concentrations two by two. On the multiwell plate, a first series has been planned comprising the culture medium without the test compound of interest. It corresponds to the growth control (control well). These controls serve as reference for comparing bacterial growth with that of the subsequent wells comprising different concentrations of the test compound of interest. The second series of wells comprises the mother solution for the test compound of interest for a concentration in the wells of 256 mg (7 mM). Each series of wells was diluted two by two until the last series for a final concentration of 0.25 mg/L (0.0007 mM). Each concentration is duplicated in the same plate. The plate is incubated for 18 h at 37° C. […] If there is antibacterial activity, the bacterial growth is inhibited, which means that no turbidity or bacterial residue is present. The minimum inhibitory concentrations (MIC) are tested on Gram-positive bacterial strains according to the recommendations of the “Clinical Laboratory Standards Institute” (Clinical-Laboratory-Standards-Institute, 6th ed. Approved standard M100-S17. CLSI, Wayne, Pa., 2007). The clinical strains have been isolated in the Hospice de Lyon. […]
In general terms: In broth dilution the organism is exposed to a series of concentrations in liquid medium.

Data set [2] relates to E. faecalis (ATCC® 29212™). Kind of data set: MIC, 96-well microplate microdilution (Example 4). In kind it is cell-based. Particulars: Mueller-Hinton medium, 18 h at 37° C. The protocol:
(§1) The bacteriostatic properties of the derivatives are evaluated by measuring their minimum inhibitory concentration (MIC) on the bacteria tested. Such a measurement is made using the 96-well microplate microdilution method according to the conditions defined below.
(§2) The minimum inhibitory concentrations (MIC) are tested on Gram-positive bacterial strains according to the recommendations of the “Clinical Laboratory Standards Institute” (Clinical-Laboratory-Standards-Institute, 6th ed. Approved standard M100-S17. CLSI, Wayne, Pa., 2007).
(§3) The Gram-positive bacteria studied are as follows: L. monocytogenes (CIP 103575), E. faecalis (ATCC® 29212™) and S. aureus (ATCC® 292213™).
(§4) The cultures studied, freshly isolated (after incubation on a blood agar at 37° C. for 18 h), are taken up in sterile water (10 mL) until a 0.5 McFarland (Mc) suspension i.e. 1 to 2×10^8 CFU (bacteria)/cm^3 is obtained. The bacterial suspension was then diluted to obtain a final concentration of 5×10^5 CFU/cm^3.
(§5) Each well contains an identical quantity of Mueller-Hinton medium (a rich medium for bacterial culture) and bacteria with final 5×10^5 CFU/cm^3.
(§6) The test compounds of interest are solubilized in 2.5% m of ethanol before being diluted to different concentrations two by two.
(§7) On the multiwell plate, a first series has been planned comprising the culture medium without the test compound of interest. It corresponds to the growth control (control well). These controls serve as reference for comparing bacterial growth with that of the subsequent wells comprising different concentrations of the test compound of interest. The second series of wells comprises the mother solution for the test compound of interest for a concentration in the wells of 4 mM. Each series of wells was diluted two by two until the last series for a final concentration of 0.003 mM. Each concentration is duplicated in the same plate. The plate is incubated for 18 h at 37° C. […] If there is antibacterial activity, the bacterial growth is inhibited, which means that no turbidity or bacterial residue is present.
(§8) Tests have been conducted on Gram-positive bacteria with sorbitan derivatives. […] After sterilization the solutions are diluted in water. The results obtained for antimicrobial tests on the 3 bacterial strains L. monocytogenes (CIP 103575), E. faecalis (ATCC® 29212™) and S. aureus (ATCC® 292213™) are summarized in Table 1.

For data set [3], the system named is L. monocytogenes (CIP 103575). Description: MIC, 96-well microplate microdilution (Example 4). In kind it is cell-based. As to conditions: Mueller-Hinton medium, 18 h at 37° C. The protocol:
as §1, §2, §3, §4, §5, §6, §7, §8

Data set [4] relates to S. aureus (ATCC® 292213™). Kind of data set: MIC, 96-well microplate microdilution (Example 4). The data set is classed as cell-based. Particulars: ATCC 292213; Mueller-Hinton medium, 18 h at 37° C. As for the experimental part: as §1, §2, §3, §4, §5, §6, §7, §8
Data set [5] is described as follows: Critical micelle concentration (surfactant properties, Example 6). The data set is classed as physicochemical. The text has this: The physical, chemical and antimicrobial properties for the best products synthesized have been tested. These analyses show the different surfactant profiles, and the minimum inhibitory concentrations (MIC) for each compound on Gram-positive bacteria. The best surfactant and antimicrobial results are compared in Table 3.

Data set [6] concerns E. faecalis (ATCC® 29212™). Kind of data set: MBC, bacterial count from clear wells reseeded on agar (Example 5). In kind it is cell-based. As to conditions: Table 2; reseeded on agar. As for the experimental part: (§9) To determine whether the agents tested are bactericidal, the minimum bactericidal concentration (MBC) is determined. The MBC corresponds to the concentration leaving a number of bacterial survivors of <4 log. For this, a bacterial count is run from clear wells or without bacterial residue (C≤MIC). To do this, a dilution to 1/100 was conducted with the two wells with the same concentration before seeding on a blood agar using the Spiral technique. After 24 h of incubation at 37° C., the visual count allowed determination of the minimum concentration from which there is no bacterial growth.
(§10) To determine the bactericidal effect of compounds presenting bacteriostatic properties, the wells no longer presenting turbidity were reseeded on agar.

Data set [7] has as its system L. monocytogenes (CIP 103575). The data set is described as above. The data set is classed as cell-based. As to conditions: Table 2; reseeded on agar. The protocol:
as §9, §10

The subject of data set [8] is S. aureus (ATCC® 292213™). Described as above. As to conditions: Table 2. The data set is classed as cell-based. The protocol:
as §9, §10

Read-outs that look alike come from different tables or passages of the source.

On to Dodecyl-1,4-d-sorbitan [Example 2e], for which the “Minimum inhibitory concentration (MIC) ATCC 29212” value in data set [1] (E. faecalis ATCC 29212) worked out at 8 µg/mL. The “Minimum inhibitory concentration (MIC) 1801” value in data set [1] (clinical E. faecalis from urines, strain 015205261801) amounted to 8 µg/mL. Moreover, in data set [1] (clinical E. faecalis from urines, strain 015206179901), the “Minimum inhibitory concentration (MIC) 9901” value was found to be 16 µg/mL. The “Minimum inhibitory concentration (MIC) E. faecalis” value in data set [2] worked out at 120 µM. Moreover, the “Minimum inhibitory concentration (MIC) L. monocytogenes” value in data set [3] was determined as 120 µM. The “Minimum inhibitory concentration (MIC) S. aureus” value in data set [4] stood at 120 µM. Further, the “CMC (critical micelle concentration)” value in data set [5] came to 0.091 mM; in data set [5] (listed as Sorbitan dodecyl ether), 0.09 mM. In data set [6], the “minimum bactericidal concentration (MBC) E. faecalis” value turned out to be 120 µM. The “minimum bactericidal concentration (MBC) L. monocytogenes” value in data set [7] came out at 120 µM. The “minimum bactericidal concentration (MBC) S. aureus” value in data set [8] came out at 120 µM.
